“Also recorded” adds a separate entry of the source. Where no end group is shown, it is not given here.
Key:
[1] = system: KATO III cells; settings: KATO III cells, RNA interference of Gpr160; cited from earlier work
Text: When studying neuropathic pain, Yosten et al.[11] found GPR160 to be necessary for CARTp-mediated cell activation in cell culture. […] Information on GPR160 is scarce, but it has been reported to be a potential marker for prostate cancer,[24] where it is involved in apoptosis and cell-cycle arrest.[25] […] Recently, the notion of GPR160 being the ...

[2] = system: GPR160; assay: Proximity ligation assay (PLA) CART-GPR160 in INS-1 832/13 cells; type: binding, rat; settings: 10^-7M CARTp55-102, 15 minutes (Figure S3B), n = 8
Experimental: INS-1 832/13 cells were seeded in 8-well tissue culture chambers (Sarstedt, Nümbrecht, Germany). […] Cells were rinsed quickly in ice-cold 1XPBS and then washed twice with ice-cold PBS. Cells were then fixed for 20 min in 4% paraformaldehyde, washed 2 × 10 min in 1XPBS and permeabilized for 15 min in PBS +0.25% Triton X-100. Proximity ligation assay (PLA) (DuoLink In situ Red Starter Kit Goat/Rabbit, Sigma Aldrich) was performed according to the instructions provided by the manufacturers. The following antibody combinations were used for the PLA: goat anti-GPR162 (sc-138323, dilution 1:500, Santa Cruz) with rabbit anti-CART (code 2059A, dilution 1:5000, kindly provided by Dr. Jes T. Clausen, Novo Nordisk, Måløv, Denmark), and goat anti-CART (code sc-18068, dilution 1:400, Santa Cruz) with rabbit anti-GPR162 (code PA5-33655, dilution 1:500, Thermo Scientific). Anti-rabbit GPR160 (code PA5-33650) was combined with anti-goat CART (code sc-18068 from Santa Cruz). Anti-rabbit GNA13 (PA5-100644) was combined with anti-goat GPR162 (sc-138323). Negative controls were omission of both antibodies and the combination of the CART antibody with an antibody toward a receptor with a known ligand. […]

[3] = system: rats; settings: cited from earlier work
Text: However, much earlier, a fragment of the CART peptide was identified in extracts of sheep hypothalamus.[2] CART was later found to be expressed also in pancreatic islet cells and in nerve fibers innervating the islets.[3]^,[4]^,[5] […] Since then, multiple biological effects of CART have been established.[4]^,[7] Among them is the effect of CART on islet hormone secretion fr ... || When studying neuropathic pain, Yosten et al.[11] found GPR160 to be necessary for CARTp-mediated cell activation in cell culture. […] Information on GPR160 is scarce, but it has been reported to be a potential marker for prostate cancer,[24] where it is involved in apoptosis and cell-cycle arrest.[25] […] Recently, the notion of GPR160 being the ... || (+ 1 further places)

[4] = system: GIP receptor; assay: Proximity ligation assay (PLA) CART-GIP receptor (specificity control); type: binding, rat; settings: control experiment, goat anti-CART with rabbit anti-GIP receptor
Experimental: INS-1 832/13 cells were seeded in 8-well tissue culture chambers (Sarstedt, Nümbrecht, Germany). 10^−7M rat CARTp55-102 (Phoenix Pharmaceuticals, Burlingame, CA) was added to fresh media and cells were incubated for 5 min in a humidified atmosphere (37°C, 5% CO2). Cells were rinsed quickly in ice-cold 1XPBS and then washed twice with ice-cold PBS. Cells were then fixed for 20 min in 4% paraformaldehyde, washed 2 × 10 min in 1XPBS and permeabilized for 15 min in PBS +0.25% Triton X-100. Proximity ligation assay (PLA) (DuoLink In situ Red Starter Kit Goat/Rabbit, Sigma Aldrich) was performed according to the instructions provided by the manufacturers. The following antibody combinations were used for the PLA: goat anti-GPR162 (sc-138323, dilution 1:500, Santa Cruz) with rabbit anti-CART (code 2059A, dilution 1:5000, kindly provided by Dr. Jes T. Clausen, Novo Nordisk, Måløv, Denmark), and goat anti-CART (code sc-18068, dilution 1:400, Santa Cruz) with rabbit anti-GPR162 (code PA5-33655, dilution 1:500, Thermo Scientific). Anti-rabbit GPR160 (code PA5-33650) was combined with anti-goat CART (code sc-18068 from Santa Cruz). Anti-rabbit GNA13 (PA5-100644) was combined with anti-goat GPR162 (sc-138323). Negative controls were omission of both antibodies and the combination of the CART antibody with an antibody toward a receptor with a known ligand. […]

[5] = system: INS-1 832/13 cells; settings: cited from earlier work
Text: (§1) GPR162 was identified as the most CART-affected orphan receptor in INS-1 832/13 cells. […] By showing that CART binds to GPR162 and that biological effects of CART are reduced or ablated after Gpr162 KD, we propose that GPR162 acts as a CART receptor in beta cells. We also established expression of GPR162 in a majority of human and mouse beta cells. Moderate GPR162 immunoreactivity was evident across the cytoplasm and more intense immunoreact ...

[6] = system: AtT20; settings: exogenous CART; cited from earlier work
Text: as §1

[7] = system: INS-1 832/13 cells; assay: Actin staining (phalloidin) in INS-1 832/13 cells; type: cell-based, rat; settings: 10^-7M CARTp55-102, 24 h, n = 6
Experimental: INS-1 832/13 cells (a rat insulinoma cell line of male origin) were cultured in RPMI 1640 medium (Sigma Aldrich, St. Louis, MO) containing 2 g/L D-glucose, supplemented with 10% FBS, 10 mM HEPES, 1 mM sodium pyruvate and 50 μM β-mercaptoethanol (Sigma Aldrich) in a humidified atmosphere (37°C, 5% CO2). For investigations of actin architecture, INS-1 832/13 cells were seeded in 8-well chamber slides (Sarstedt) and transfected as described below before being fixed, permeabilized and stained with phalloidin (Phalloidin-iFluor488, Abcam, Cambridge, UK) for 60 min. Nuclei were counter-stained with DAPI and F-actin was visualized using Phalloidin-iFluor488 (Abcam). Phalloidin staining was performed for 60 min at a dilution of 1:1000 (in PBS +0.25% Triton X-100). Phalloidin intensity was quantified using the ImageJ software.

Substance: CARTp55-102: Rat, mouse CARTp55-102 (Phoenix Pharmaceuticals, Cat#003-62); human form Cat#003-60; cocaine- and amphetamine-regulated transcript peptide (IPIYEKKYGQVPMCDAGEQCAVRKGARIGKLCDCPRGTSCNSFLLKCL; ends and bridges not checked; cysteine pairing not given here)
- c-FOS expression after Gpr160 RNA interference [1]: RNA interference of Gpr160 prevented CART from activating c-FOS expression
- CART-GPR160 interaction (PLA) [2]: no
- CART-GPR160 interaction (PLA) ([2]; listed as CART): failed to detect
- Anorexigenic effects of CART on meal microstructure after Gpr160 knockdown ([3]; AAV-mediated knockdown of Gpr160 in dorsal vagal complex, rat): partially attenuates the anorexigenic effects of CART on meal microstructure
- Anorexigenic effect [3]: anorexigenic effects
- CART-GIP receptor interaction (PLA control) [4]: no interaction was found between CART and the GIP receptor
- cAMP [5]: increase cAMP
- Activation of AtT20 [6]: capable of activating AtT20
- Effect of CARTp on actin staining in Gpr162 KD cells ([7]; listed as CART): near-complete abolishment
- Effect of CARTp on actin staining in Gpr162 KD cells ([7]; listed as CARTp): without effect; also recorded: lost in Gpr162 KD cells
- Increase in actin staining ([7]; control cells, phalloidin): approximately 2 -fold
